# Experimental data published in paper PMC12190436, “5-Ene-2-arylaminothiazol-4(5H)-ones Induce Apoptosis in Breast Cancer Cells” (Cells, 2025).
# Key:
# MCF-7 cells = test: Acridine orange/ethidium bromide staining, morphology; format: cell-based, human; conditions: 5 µM, 24 h, MCF-7, AO/EB staining
# Description: To display morphological changes in the MCF-7 cells after 24 h of treatment by lead compound Les-6416 and the positive control doxorubicin, we performed acridine orange and ethidium bromide staining. MCF-7 cells were seeded in 6-well plates at 1 × 10^5 cells per well in 2 mL medium, followed by incubation for 24 h. Afterwards, the cells were treated with lead compound Les-6416 at a concentration equal to 5 µM and DOX in a concentration equal to 0.5 µM. Next, cells were washed with 1 mL of PBS per well. Subsequently, double staining was performed using 10 µL of AO and EB, incubated at room temperature for 10 min. After that, cells were washed with PBS. Images were obtained with the use of a Nikon ECLIPSE Ti fluorescence microscope (Nikon, Tokyo, Japan). Images were analyzed using ImageJ software version 1.54k (Bethesda, MD, USA).
# To analyze morphological changes in MCF-7 cells after 24 h of treatment, we performed the double staining with acridine orange and ethidium bromide. This method provides the capability to observe different stages of cell death depending on cell membrane integrity and chromatin condensation. Green fluorescence can be observed due to acridine orange staining, that penetrates all cells, while red coloring is contributed to ethidium bromide, which can only penetrate cells with injured cell membranes. […]
# CCRF-CEM = format: cell-based
# K-562 = format: cell-based
# SR = format: cell-based
# Leukemia = format: cell-based
# A549/ATCC = format: cell-based
# HOP-62 = format: cell-based
# HOP-92 = format: cell-based
# NCI-H266 = format: cell-based
# NCI-H23 = format: cell-based
# SF-268 = format: cell-based
# U251 = format: cell-based
# MALME -3M = format: cell-based
# Melanoma = format: cell-based
# OVCAR-4 = format: cell-based
# Ovarian Cancer = format: cell-based
# CAKI-1 = format: cell-based
# RXF 393 = format: cell-based
# TK-10 = format: cell-based
# DU-145 = format: cell-based
# HS 578T = format: cell-based
# T-47D = format: cell-based
# [1] = Homo sapiens, 48 h, read-out: LC50 (the source's name)
compound,measurement,setting,value
"COc1cc(NC2=NC(=O)C(=Cc3ccc4cc[nH]c4c3)S2)cc(OC)c1OC [Les-6416, 5-((1H-Indol-6-yl)methylene)-2-((3,4,5-trimethoxyphenyl)amino)thiazol-4(5H)-one]",morphological changes,MCF-7 cells,cell shrinkage and chromatin condensation
"COc1cc(NC2=NC(=O)C(=Cc3c[nH]c4ccccc34)S2)cc(OC)c1OC [Les-6418, 5-((1H-Indol-3-yl)methylene)-2-((3,4,5-trimethoxyphenyl)amino)thiazol-4(5H)-one]",TGI,CCRF-CEM; 48 h,> 100 µM
same,GI50,"CCRF-CEM; Homo sapiens, 48 h",2.09 µM
same,CC50,CCRF-CEM; [1],> 100 µM
same,SI (TGI),CCRF-CEM; MG_MID_60/value,0.19
same,GI50,"K-562; Homo sapiens, K562, K-562, 48 h",0.526 µM
same,CC50,"K-562; Homo sapiens, K562, K-562, 48 h, read-out: LC50 (the source's name)",> 100 µM
same,TGI,"K-562; K-562, 48 h",31.1 µM
same,SI (TGI),"K-562; K-562, MG_MID_60/value",0.60
same,TGI,SR; 48 h,29.9 µM
same,GI50,"SR; Homo sapiens, 48 h",0.394 µM
same,CC50,SR; [1],> 100 µM
same,SI (TGI),SR; MG_MID_60/value,0.62
same,GI50,"Leukemia; Homo sapiens, Leukemia subpanel mean, read-out: MG_MID GI50",2.04 µM
same,CC50,"Leukemia; Homo sapiens, Leukemia subpanel mean, read-out: MG_MID LC50",> 100 µM
same,MG_MID TGI,Leukemia; Leukemia subpanel mean,49.7 µM
same,SI (MG_MID TGI),"Leukemia; Leukemia subpanel, MG_MID_60/value",0.37
same,TGI,A549/ATCC; 48 h,16.5 µM
same,GI50,"A549/ATCC; Homo sapiens, 48 h",2.84 µM
same,LC50,"A549/ATCC; Homo sapiens, 48 h",73.6 µM
same,SI (TGI),A549/ATCC; MG_MID_60/value,1.13
same,TGI,"HOP-62; HOP-62, 48 h",15.7 µM
same,SI (TGI),"HOP-62; HOP-62, MG_MID_60/value",1.18
same,GI50,"HOP-62; Homo sapiens, HOP-62, 48 h",2.69 µM
same,LC50,"HOP-62; Homo sapiens, HOP-62, 48 h",65.9 µM
same,Growth %,"HOP-92; HOP-92, 10 μM, one dose, 48 h",−72.26%
same,TGI,"HOP-92; HOP-92, 48 h",6.38 µM
same,SI (TGI),"HOP-92; HOP-92, MG_MID_60/value",2.92
same,GI50,"HOP-92; Homo sapiens, HOP-92, 48 h",1.98 µM
same,CC50,"HOP-92; Homo sapiens, HOP-92, 48 h, read-out: LC50 (the source's name)",42 µM
same,GI50,"NCI-H266; Homo sapiens, NCI-H266, 48 h",3.18 µM
same,CC50,"NCI-H266; Homo sapiens, NCI-H266, 48 h, read-out: LC50 (the source's name)",68.8 µM
same,TGI,"NCI-H266; NCI-H266, 48 h",17.4 µM
same,SI (TGI),"NCI-H266; NCI-H266, MG_MID_60/value",1.07
same,GI50,"NCI-H23; Homo sapiens, NCI-H23, 48 h",5.33 µM
same,CC50,"NCI-H23; Homo sapiens, NCI-H23, 48 h, read-out: LC50 (the source's name)",54 µM
same,TGI,"NCI-H23; NCI-H23, 48 h",21.1 µM
same,SI (TGI),"NCI-H23; NCI-H23, MG_MID_60/value",0.88
same,GI50,"SF-268; Homo sapiens, SF-268, 48 h",3.56 µM
same,CC50,"SF-268; Homo sapiens, SF-268, 48 h, read-out: LC50 (the source's name)",81.3 µM
same,TGI,"SF-268; SF-268, 48 h",20.0 µM
same,SI (TGI),"SF-268; SF-268, MG_MID_60/value",0.93
same,GI50,"U251; Homo sapiens, U-251, U251, 48 h",3.27 µM
same,CC50,"U251; Homo sapiens, U-251, U251, 48 h, read-out: LC50 (the source's name)",54.7 µM
same,TGI,"U251; U251, 48 h",15.7 µM
same,SI (TGI),"U251; U251, MG_MID_60/value",1.18
same,Growth %,"U251; U-251, 10 μM, one dose, 48 h",−79.79%
same,TGI,MALME -3M; 48 h,15.2 µM
same,GI50,"MALME -3M; Homo sapiens, 48 h",2.01 µM
same,CC50,MALME -3M; [1],43.9 µM
same,SI (TGI),MALME -3M; MG_MID_60/value,1.22
same,GI50,"Melanoma; Homo sapiens, Melanoma subpanel mean, read-out: MG_MID GI50",3 µM
same,CC50,"Melanoma; Homo sapiens, Melanoma subpanel mean, read-out: MG_MID LC50",43.1 µM
same,MG_MID TGI,Melanoma; Melanoma subpanel mean,14.9 µM
same,SI (MG_MID TGI),"Melanoma; Melanoma subpanel, MG_MID_60/value",1.25
same,GI50,"OVCAR-4; Homo sapiens, OVCAR-4, 48 h",2.88 µM
same,CC50,"OVCAR-4; Homo sapiens, OVCAR-4, 48 h, read-out: LC50 (the source's name)",35.3 µM
same,TGI,"OVCAR-4; OVCAR-4, 48 h",10.6 µM
same,SI (TGI),"OVCAR-4; OVCAR-4, MG_MID_60/value",1.75
same,GI50,"Ovarian Cancer; Homo sapiens, Ovarian Cancer subpanel mean, read-out: MG_MID GI50",4.61 µM
same,CC50,"Ovarian Cancer; Homo sapiens, Ovarian Cancer subpanel mean, read-out: MG_MID LC50",50.5 µM
same,MG_MID TGI,Ovarian Cancer; Ovarian Cancer subpanel mean,16.7 µM
same,SI (MG_MID TGI),"Ovarian Cancer; Ovarian Cancer subpanel, MG_MID_60/value",1.11
same,TGI,"CAKI-1; CAKI-1, 48 h",10.3 µM
same,SI (TGI),"CAKI-1; CAKI-1, MG_MID_60/value",1.81
same,GI50,"CAKI-1; Homo sapiens, CAKI-1, 48 h",0.84 µM
same,CC50,"CAKI-1; Homo sapiens, CAKI-1, 48 h, read-out: LC50 (the source's name)",33.1 µM
same,GI50,"RXF 393; Homo sapiens, RXF 393, 48 h",1 µM
same,CC50,"RXF 393; Homo sapiens, RXF 393, 48 h, read-out: LC50 (the source's name)",34 µM
same,TGI,"RXF 393; RXF 393, 48 h",5.80 µM
same,SI (TGI),"RXF 393; RXF 393, MG_MID_60/value",3.21
same,GI50,"TK-10; Homo sapiens, TK-10, 48 h",8.56 µM
same,CC50,"TK-10; Homo sapiens, TK-10, 48 h, read-out: LC50 (the source's name)",55.6 µM
same,TGI,"TK-10; TK-10, 48 h",22.8 µM
same,SI (TGI),"TK-10; TK-10, MG_MID_60/value",0.82
same,TGI,"DU-145; DU-145, 48 h",17.2 µM
same,SI (TGI),"DU-145; DU-145, MG_MID_60/value",1.08
same,GI50,"DU-145; Homo sapiens, DU-145, 48 h",4.63 µM
same,CC50,"DU-145; Homo sapiens, DU-145, 48 h, read-out: LC50 (the source's name)",47.4 µM
same,TGI,HS 578T; 48 h,11.9 µM
same,GI50,"HS 578T; Homo sapiens, 48 h",2.33 µM
same,CC50,HS 578T; [1],> 100 µM
same,SI (TGI),HS 578T; MG_MID_60/value,1.56
same,TGI,T-47D; 48 h,19.7 µM
same,GI50,"T-47D; Homo sapiens, T47D, 48 h",3.58 µM
same,CC50,"T-47D; Homo sapiens, T47D, 48 h, read-out: LC50 (the source's name)",61.2 µM
same,SI (TGI),T-47D; MG_MID_60/value,0.94
